These results are taken from patent publication US20110263510A1, “Methods of Inhibiting Cell Death or Inflammation in a Mammal” (priority 2006, published 2011).

Ends that are not written are not given here. Peptide text beside a SMILES is read from it. * marks the point of attachment. Cbz = O=C(OCc1ccccc1)*; CH2F = FC*

The subject of test [1] is skeletal muscle ischemia-reperfusion injury. Conditions: Iwata et al., Blood 100:2077, 2002; cited from earlier work.
The test system of test [2] is hind-limbs of C57BL/6 mice, ischemia-reperfusion injury. Briefly: hind-limb tourniquet ischemia (90 minutes) and reperfusion (3 hours), plasma creatine kinase. The class given is in vivo, mouse. Conditions: pretreatment. As to the method:
Skeletal muscle was made ischemic by applying a tourniquet to the hind-limbs of C57BL/6 mice for 90 minutes, then removing the tourniquet and allowing reperfusion for an additional 3 hours. Mice were treated with active peptide 1 (SEQ ID NO:17) or peptide 2 (SEQ ID NO:18) or peptide 3 (SEQ ID NO:19), or with the scrambled (control) peptide (SEQ ID NO:20). Peptide-1 (SEQ ID NO:17) is from the BH4 region of Bcl-2. Peptide-2 (SEQ ID NO:18) is from the first alpha helix of A1/Bfl-1. Peptide-3 (SEQ ID NO:19) is from the BH4 region of Bcl-XL. The amino acid sequences of peptide 1 (SEQ ID NO:17), peptide 2 (SEQ ID NO:18), peptide 3 (SEQ ID NO:19), and the scrambled (control) peptide (SEQ ID NO:20) are set forth in Table 1.
At the end of the 3 hours of reperfusion the mice were killed, and blood was taken for determination of plasma creatine kinase (CK) concentration. The CK concentration was used as an indicator of muscle injury. Elevated levels of CK indicate higher levels of muscle injury. […] The CK concentration for peptide 1 (SEQ ID NO:17) treated mice was 19,020+/−5481 IU/L (n=12) compared with control peptide (SEQ ID NO:20) where CK concentration was 60,530+/−5759 IU/L (n=12). The CK concentration for peptide 2 (SEQ ID NO:18) treated mice was 33,860+/−5997 IU/L (n=11) compared with control peptide (SEQ ID NO:20) where CK concentration was 69,430+/−11,170 IU/L (n=12). The CK concentration for peptide 3 (SEQ ID NO:19) treated mice was 49,500+/−3,901 IU/L (n=5) compared with control peptide (SEQ ID NO:20) where CK concentration was 80,880+/−11,430 IU/L (n=6).

For test [3], the system named is C57BL/6 mice subjected to hind limb ischemia and reperfusion. In words: hind limb ischemia (aortic cross-clamp, 90 minutes) and reperfusion (3 hours), plasma creatine kinase. The class given is in vivo. Conditions: 1 microgram/mouse intraperitoneally the day before, 12 mice per group. As to the method: Mouse skeletal muscle was made ischemic by cross-clamping the aorta distal to the renal artery for 90 minutes, then the clamp was removed and hind limb reperfusion continued for 3 hours. At the end of reperfusion (3 hours after clamp removal) the mice were killed, and the concentration of plasma creatine kinase (CK) was measured and used as an indicator of injury (creatine kinase concentration increases as a result of skeletal muscle injury).
Blood from EμT-Bcl-2 mice and their littermate control mice was drawn into heparin and plasma was extracted by centrifugation. One ml of plasma from EμT-Bcl-2 mice, or one ml of plasma from littermate control mice, was injected into the peritoneum of C57BL/6 mice the day before the mice were subjected to 90 minutes of ischemia and 3 hours of reperfusion as described in Example 1 herein. Blood was drawn from the mice and plasma CK concentration was determined at the end of reperfusion.
C57BL/6 mice were injected intraperitoneally with 1 μg per mouse of recombinant human Bcl-2 (rBcl-2) (SEQ ID NO:15) or 1 μg per mouse of recombinant human ubiquitin (rUbiquitin), or the vehicle solution for rBcl-2 the day before the mice were subjected to hind limb ischemia (90 minutes) and reperfusion (180 minutes) as described in Example 1. […]

Test [4] concerns previously ischemic muscle of mice. Briefly: tourniquet ischemia/reperfusion, skeletal muscle tissue viability by MTT. Type of test: in vivo, mouse. Conditions: measured the following day. From the text: The ability of a Bcl protein to inhibit cell death in a mammal, and/or to inhibit inflammation in a mammal concurrent with or after the onset of a condition expected to lead to cell death or inflammation, can be assessed, for example, in a mammal subjected to ischemia-reperfusion injury. As used herein, “determining,” “measuring,” and “assessing,” and “assaying” are used interchangeably and include both quantitative and qualitative determinations. For example, one or more of the following markers and/or assays can be used to assess the ability of a Bcl protein to inhibit cell death and/or inflammation in a mammal subjected to ischemia-reperfusion injury: 1. […] The viability of tissue subjected to I/R was measured using 3-(4,5-dimethylthiazol-2-yl)-2,5-diphenyl tetrazolium (MTT) (Ferrera et al., J Mol Cell Cardiol 25:1091, 1993). […]
Anesthetized mice were subjected to 90 minutes of tourniquet ischemia using a hemorrhoid ligator followed by reperfusion and were treated at various times by a subcutaneous injection of 1 microgram of either rhA1/Bfl-1 or rhBim, a pro-apoptotic Bcl-2 family member that lacks a BH4 or BH4-like domain (O'Connor et al., EMBO J. 17:384, 1998). The following day, mice were killed, the previously ischemic muscle removed, and tissue viability measured using 3-(4,5-dimethylthiazol-2-yl)-2,5-diphenyl tetrazolium (MTT). […]

Where [5] appears, read: experiment peptide 3 (n=5) versus control peptide (n=6).
Setting [6] is: experiment peptide 1 (n=12) versus control peptide (n=12).
Setting [7] is: experiment peptide 2 (n=11) versus control peptide (n=12).

As for `CC(NC(=O)C(NC(=O)OCc1ccccc1)C(C)C)C(=O)NC(CC(=O)O)C(=O)CF` (stereo not drawn) [z-VAD] (Cbz-Val-Ala-Asp-CH2F; configuration not given here), in test [1], the “DNA strand-breaks after extended ischemia and reperfusion of skeletal muscle” value is listed as “prevents the strand-breaks”; the “plasma CK concentration after extended ischemia and reperfusion of skeletal muscle” value is listed as “reduces the plasma CK concentration”.

In the case of MSQSNRELVVDFLSYKLSQKGYSWSQF [peptide 3], the CK concentration in test [2] (setting [5]) is recorded as 49,500+/−3,901 IU/L.

On to “TWHMYGNQRDYIGDRSKIVYKLEYE [control peptide, scrambled (control) peptide, reference compound]”, for which the CK concentration is reported as 60,530+/−5759 IU/L in test [2] (setting [6]), 69,430+/−11,170 IU/L in test [2] (setting [7]) and 80,880+/−11,430 IU/L in test [2] (setting [5]).

As to TGYDNREIVMKYIHYKLSQRGYEWD [peptide 1], in test [2] (setting [6]), the CK concentration is 19,020+/−5481 IU/L.

For “FGYIYRLAQDYLQCVLQIPZPGSGP (FGYIYRLAQDYLQCVLQIPXPGSGP; X not resolved here; also: Z at 20 undefined) [peptide 2, from the first alpha helix of A1/Bfl-1]”, in test [2] (setting [7]), the CK concentration was 33,860+/−5997 IU/L.

B1: rhA1/Bfl-1: human A1 minus 25 amino acids at the carboxy terminal and addition of 6 histidine on the remaining protein (protein, listed as Homo sapiens)
chain: MTDCEFGYIYRLAQDYLQCVLQIPQPGSGPSKTSRVLQNVAFSVQKEVEKNLKSCLDNVNVVSVDTARTLFNQVMEKEFEDGIINWGRIVTIFAFEGILIKKLLRQQIAPDVDTYKEISYFVAEFIMNNTGEWIRQNGGWENGFVKKFEPKSHHHHHH
In the case of B1, in test [3], the “plasma creatine kinase concentration compared to mice injected with rUbiquitin” value was “significantly (p<0.05) lower”. For the same molecule, the “average plasma creatine kinase concentration” value in test [3] (90 min ischemia, 180 min reperfusion) was 4,353+/−1284 IU/L. In addition, the “tissue viability normalized to tissue dry weight (MTT), compared to rhBim” value is “significantly greater tissue viability” in test [4] (1 microgram subcutaneous 4 hours after the start of reperfusion, FIG. 11) and “greater viability” in test [4] (1 microgram subcutaneous at the time of reperfusion, FIG. 10).
